Ends that are not written are not given here. FAM = 5(6)-carboxyfluorescein; Ahx = NCCCCCC(=O)O
Tested on: MRC1/CD206-expressing tumor-associated macrophages (MEMs) in 4T1 tumors
Assay: Free peptide homing and immunofluorescence in the orthotopic 4T1 breast tumor model
Conditions: 30 nmoles i.v.
Method: (SEQ ID NO: 5) control peptide were injected intravenously into 4T1 tumor-bearing mice and allowed to circulate for 2 h. Mice were then sacrificed and tumor and tissues were analyzed by immunofluorescence using rabbit anti-FAM (green) and rat anti-CD206 or rat anti-TIE2 (red) antibodies, and counterstained with DAPI. All images were taken under the same imaging conditions. FAM-UNO accumulated in macrophages within tumors and lymph nodes positive for CD206 staining (A, B, C) and TIE2 (D, and H: Blow up of D). […] To ascertain that anti-CD206 is capable of detecting CD206 in the liver, an image was acquired with longer exposure time from an uninjected animal (FIG. 25). […] Green: FAM-peptide; Red: CD206 or TIE2, Blue: DAPI. Representative fields from multiple sections prepared from at least 3 tumors (n≥3 mice) are shown.
Tumor models were induced according to protocols approved by the Estonian Ministry of Agriculture, Committee of Animal Experimentation (permit #48). For the 4T1 breast model, 8-week old female Balb/c mice were injected in the mammary fat pad with 10^6 cells dispersed in 50 μL of PBS. For homing studies, mice were used 10 days later, when the tumor had reached ˜150 mm^3. For MCF-7 breast model, 8-week old female nude mice were implanted with an estrogen pellet, and 1 week later inoculated with 5×10^6 MCF-7 cells in 100 μL of cold Matrigel (BD Biosciences, CA, USA). Mice were used for homing studies three weeks later (tumor volume˜150 mm^3). For the metastatic gastric carcinoma, 10^6 MKN45-P cells in PBS were injected intraperitoneally in 8-week old female nude mice. Mice were used for homing studies two weeks later. For the metastatic melanoma model, 2×10^5 B16F10 cells were injected intravenously in 100 μL of PBS in C57 BL6 mice. The mice were used for homing studies 10 days after. For the angiogenic glioblastoma model, WT-GBM 24, 7×10^5 cells were stereotactically injected in the right striatum of Fox/Nu mice 2 mm lateral and posterior of bregma of 2.5 mm deep. The mice were used for homing studies 6-7 days after the injection.
For free peptide homing studies, mice were injected intravenously with 30 nmoles of FAM-peptides in 100 μL of PBS. For nanoparticle homing studies-FAM-UNO—NP-PTX-, mice were injected intravenously in mice bearing MCF-7 breast tumors with 1 mg of Polymer in 100 μL pf PBS and allowed to circulate for 6 h. For tissue collection, the mice were anesthetized and the tissues collected and immediately placed in 4% cold PFA and left overnight at 4-C. Tissues were washed with PBS for 2 h at room temperature and cryoprotected with sucrose 15% at 4-C overnight and then in sucrose 30% at 4·C overnight. The tumor and the control organs were placed together in the same block with OCT compound (Leica Biosystems, Wetzlar, Germany), snap-frozen in isopentane, and sectioned at 10 μm. FAM was detected using Rabbit anti-FITC (Invitrogen, CA, USA. Catalog # A-889) at a dilution of 1/100 and using Alexa Fluor-546 anti-rabbit antibody (Invitrogen, Ca, USA. Catalog # A-11035) at a dilution of 1/200. CD31 was detected using rat anti-mouse CD31 (BD Biosciences, CA, USA. Catalog #: 553370), TIE2 was detected using rat anti-mouse TIE2 (Biolegend, CA, USA. Catalog #124001), CD209 was detected using rat anti-mouse CD209 (Biolegend, CA, USA. Catalog #147802), HLA ABC was detected using rat anti Human HLA ABC (Bio-Rad, CA, USA. Product code MCA485G), and CD206 was detected using ratanti-mouse CD206 (Bio-Rad, CA, USA. Product code MCA2235GA); using 1/100 primary antibody dilution and Alexa Fluor-647 anti-Rat antibody (Invitrogen, CA, USA. Catalog #21247) at 1/200 dilution. To quantify FAM signal from confocal images, the green channel of images taken by using 20× magnification objective was opened with ImageJ, converted to 8-bit grayscale and the integrated pixel intensity was measured. Different regions of tumors from three different mice were used.

FAM-UNO: FAM-labeled UNO peptide CSPGAKVRC (SEQ ID NO: 1); 5(6)-carboxyfluorescein with 6-aminohexanoic acid spacer at the N-terminus ({FAM-Ahx}-CSPGAKVRC; cysteine pairing not given here)
time the signal remained readily detectable in MEMs after administration: up to 12 h | accumulation in liver, heart, lungs and spleen (2 h): low | internalization in MEMs (high resolution confocal microscopy) (2 h): internalized in MEMs | overlap with CD209 in sections from 4T1 tumors (2 h): only a moderate overlap with CD209 | accumulation in MEMs / tumor homing (2 h circulation): accumulated in MEMs in tumors and in sentinel lymph nodes | cells positive for FAM-UNO that were also positive for CD206, in tumors (2 h circulation): 96% | FAM fluorescence in the kidneys (2 h time point): FAM-fluorescence was observed in the kidneys

FAM-CSPGAK: FAM-labeled linear CSPGAK (SEQ ID NO: 6) (not fully specified; FAM label)
accumulation in MEMs / tumor homing (2 h circulation): accumulated in MEMs in orthotopic 4T1 breast tumor-bearing mice at levels comparable to FAM-UNO

Reference: US11571484B2, “Compositions that target tumor-associated macrophages and methods of use therefor” (Sanford Burnham Prebys Medical Discovery Institute, priority 2017, dated 2023)
